Results on 36 compounds are retold here after US11787802B2, “Dihydrobenzimidazolones for medical treatment” (C4 Therapeutics, Inc., priority 2017, dated 2023).

A value given as a limit tells only on which side of the number the result lay.

Sequence of hCereblon(M1-L442)_hDDB1(M1-H1140) (Q96SW2 whole entry): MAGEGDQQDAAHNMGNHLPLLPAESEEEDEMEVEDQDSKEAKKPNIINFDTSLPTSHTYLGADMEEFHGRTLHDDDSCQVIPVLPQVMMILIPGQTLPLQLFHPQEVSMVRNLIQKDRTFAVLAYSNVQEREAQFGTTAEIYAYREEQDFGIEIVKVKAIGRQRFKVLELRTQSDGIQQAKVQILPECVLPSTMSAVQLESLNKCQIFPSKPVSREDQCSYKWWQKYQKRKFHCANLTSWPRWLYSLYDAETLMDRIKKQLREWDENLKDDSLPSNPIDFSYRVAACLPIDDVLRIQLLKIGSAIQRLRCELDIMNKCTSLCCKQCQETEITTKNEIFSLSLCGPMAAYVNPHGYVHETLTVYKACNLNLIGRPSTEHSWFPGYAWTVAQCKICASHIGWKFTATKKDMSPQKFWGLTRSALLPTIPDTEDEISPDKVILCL
Sequence of hCereblon(M1-L442)_hDDB1(M1-H1140) (Q16531 whole entry partner): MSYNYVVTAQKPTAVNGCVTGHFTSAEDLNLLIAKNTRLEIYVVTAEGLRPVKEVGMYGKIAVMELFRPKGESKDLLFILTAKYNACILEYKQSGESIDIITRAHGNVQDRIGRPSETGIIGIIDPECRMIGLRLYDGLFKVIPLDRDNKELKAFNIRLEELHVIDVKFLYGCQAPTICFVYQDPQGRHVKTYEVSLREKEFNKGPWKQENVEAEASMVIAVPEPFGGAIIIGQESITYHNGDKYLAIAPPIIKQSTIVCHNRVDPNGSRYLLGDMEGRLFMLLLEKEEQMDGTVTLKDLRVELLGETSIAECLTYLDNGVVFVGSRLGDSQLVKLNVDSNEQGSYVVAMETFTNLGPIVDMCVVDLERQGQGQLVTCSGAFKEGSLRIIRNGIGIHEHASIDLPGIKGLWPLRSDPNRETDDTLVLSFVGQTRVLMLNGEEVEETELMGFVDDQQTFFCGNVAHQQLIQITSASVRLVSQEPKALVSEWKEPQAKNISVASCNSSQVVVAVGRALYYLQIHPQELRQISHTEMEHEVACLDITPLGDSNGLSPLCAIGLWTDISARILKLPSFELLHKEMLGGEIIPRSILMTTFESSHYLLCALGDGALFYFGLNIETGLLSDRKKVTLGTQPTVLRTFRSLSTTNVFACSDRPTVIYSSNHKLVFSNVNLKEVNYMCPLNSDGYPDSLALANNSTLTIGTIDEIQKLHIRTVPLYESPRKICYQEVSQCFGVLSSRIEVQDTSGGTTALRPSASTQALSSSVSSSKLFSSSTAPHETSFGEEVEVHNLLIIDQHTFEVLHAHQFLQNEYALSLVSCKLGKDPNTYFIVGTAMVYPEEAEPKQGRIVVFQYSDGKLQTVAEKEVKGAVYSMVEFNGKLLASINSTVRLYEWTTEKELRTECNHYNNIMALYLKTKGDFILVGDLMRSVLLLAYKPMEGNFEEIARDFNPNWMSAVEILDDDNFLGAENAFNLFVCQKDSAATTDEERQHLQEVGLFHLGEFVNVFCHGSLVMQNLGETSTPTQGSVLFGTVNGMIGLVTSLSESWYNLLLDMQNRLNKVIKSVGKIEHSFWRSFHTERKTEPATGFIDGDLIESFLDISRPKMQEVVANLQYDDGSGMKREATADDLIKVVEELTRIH

This assay has as its target hCereblon(M1-L442)_hDDB1(M1-H1140) (Homo sapiens (Human), UniProt Q96SW2). Kind of assay: Fluorescence direct binding protocol (tryptophan fluorescence titration). The settings on record: fluorescence titration at 20° C., excited at 280 nm, recorded at 340 nm; protein 5.0 E−8 M; assay buffer 50 mM Hepes 7.4 200 mM NaCl; read-out: Fluorescence h-Cereblon_DDB1 Mean Kd_EQ. As to the method:
Fluorescence Direct Binding Protocol
Determination of the affinities of compounds to protein containing one or more tryptophan is measurable by monitoring the fluorescence emission in direct mode. The measurements depending on the protein available amounts are performed either manually in a cuvette on ISS-PC1 photon counting spectrofluorometer or automatically in well plates on a fluorescence plate reader device. Fluorescence titrations are performed at 20° C. in the chosen binding assay buffer by using a defined constant protein concentration against ligand concentration variations. Small aliquots of known ligand concentration solubilized in DMSO were added and the fluorescence, excited at 280 nm, was recorded at 340 nm. The fluorescence intensity was corrected for protein dilution and for the filter effect (Birdsall et al.^69). The corrected fluorescence intensity was plotted against the ligand concentration and fitted using a four-parameter sigmoidal function, from which the equilibrium dissociation constant Kd was computed using the law of mass action assuming a 1:1 protein-ligand complex (Eftink, 1997^70).
Process • 1) Optimization of measurement parameters to minimize protein consumption and to minimize the dilution effect and the DMSO content • 2) Titration measurements of the protein against ligand by at least 12 titration steps to obtain a good s-curve fit • 3) Repeat the same titration measurements with the ligand alone to enable correction • 4) Check the stability of the protein once by titration against DMSO alone • 5) Determination of the molar extinction coefficients of the ligand at 280 and 340 nm with help of an UV-spectrophotometer • 6) Use Excel template for the correction of the measured raw data • 7) Use GraphPad Prism software for the quadratic binding fit and the KD evaluation.
In the case of `CC(C)c1nc2ccccc2n1-c1ccc2c(c1)[nH]c(=O)n2C` [Example 34, 2-Isopropyl-1′-methyl-1′,3′-dihydro-2′H-[1,5′-bibenzo[d]imidazol]-2′-one], the Kd is 19 nM. As for `CNS(=O)(=O)c1ccc(CC(=O)Nc2ccc3[nH]c(=O)[nH]c3c2)cc1` [Example 106, 2-(4-(N-Methylsulfamoyl)phenyl)-N-(2-oxo-2,3-dihydro-1H-benzo[d]imidazol-5-yl)acetamide], the figure is 1 nM.

In the case of `CC(C)c1nccn1-c1ccc2[nH]c(=O)[nH]c2c1` [Example 32, 5-(2-Isopropyl-1H-imidazol-1-yl)-1,3-dihydro-2H-benzo[d]imidazol-2-one], the Kd came out at 6 nM.

With `CNC(=O)c1ccc2c(c1)nc(C1(c3ccccc3)CC1)n2-c1ccc2[nH]c(=O)[nH]c2c1` [Example 114, N-Methyl-2′-oxo-2-(1-phenylcyclopropyl)-2′,3′-dihydro-1′H-[1,5′-bibenzo[d]imidazole]-5-carboxamide], the Kd is 8 nM.

As to `CC(=O)N1CCC(NS(=O)(=O)c2ccc3[nH]c(=O)[nH]c3c2)CC1` [Example 117, N-(1-Acetylpiperidin-4-yl)-2-oxo-2,3-dihydro-1H-benzo[d]imidazole-5-sulfonamide], the Kd came out at 8 nM. On to `O=c1[nH]c2ccc(OCc3ccccc3)cc2[nH]1` [Example 154, 5-(Benzyloxy)-1,3-dihydro-2H-benzo[d]imidazol-2-one], for which the Kd amounted to 17 nM. As for `CNC(=O)c1ccc2c(c1)nc(-c1cc(-c3cncn3C)nc3ccccc13)n2-c1ccc2[nH]c(=O)[nH]c2c1` [Example 2, N-Methyl-2-(2-(1-methyl-1H-imidazol-5-yl)quinolin-4-yl)-2′-oxo-2′,3′-dihydro-1′H-[1,5′-bibenzo[d]imidazole]-5-carboxamide], the figure is 28 nM. As for `O=C(c1nc2ccccc2n1-c1ccc2[nH]c(=O)[nH]c2c1)N1CCCCC1` [Example 103, 5-[2-(Piperidine-1-carbonyl)benzimidazol-1-yl]-1,3-dihydrobenzimidazol-2-one], the figure is 35 nM.

With `O=C(c1cnc2[nH]c(=O)[nH]c2c1)N1CCCc2ccccc21` [Example 95, 6-(1,2,3,4-Tetrahydroquinoline-1-carbonyl)-1,3-dihydro-2H-imidazo[4,5-b]pyridin-2-one], the Kd came out at 20 nM.

In the case of `CC(O)c1nc2ccccc2n1-c1ccc2[nH]c(=O)[nH]c2c1` (stereo not drawn) [Example 84, 5-[2-(1-Hydroxyethyl)benzimidazol-1-yl]-1,3-dihydrobenzimidazol-2-one], the Kd amounted to 3 nM. As for `O=c1[nH]c2ccc(-c3cccc4ncccc34)cc2[nH]1` [Example 42, 5-Quinolin-5-yl-1,3-dihydro-benzoimidazol-2-one], the figure is 336 nM.

For `CCOC(=O)c1ccc2c(c1)CN(c1ccc3[nH]c(=O)[nH]c3c1)C2=O` [Example 111, Ethyl 1-oxo-2-(2-oxo-1,3-dihydrobenzimidazol-5-yl)isoindoline-5-carboxylate], the Kd worked out at 18 nM.

As to `CC(=O)Nc1ccc2c(c1)CCN2Cc1ccc2[nH]c(=O)[nH]c2c1` [Example 150, N-(1-((2-Oxo-2,3-dihydro-1H-benzo[d]imidazol-5-yl)methyl)indolin-5-yl)acetamide], the Kd stood at 3 nM. Consider `CCc1nc2cc(C(=O)NCCCCCNC(=O)C[C@@H]3N=C(c4ccc(Cl)cc4)c4c(sc(C)c4C)-n4c(C)nnc43)ccc2n1-c1ccc2[nH]c(=O)[nH]c2c1` [Example A, N-(5-(2-((6S)-4-(4-chlorophenyl)-2,3,9-trimethyl-6H-thieno[3,2-f][1,2,4]triazolo[4,3-a][1,4]diazepin-6-yl)acetamido)pentyl)-2-ethyl-2′-oxo-2′,3′-dihydro-1′H-[1,5′-bibenzo[d]imidazole]-5-carboxamide], for which the Kd was determined as 55 nM.

As to `O=C(Nc1ccc2[nH]c(=O)[nH]c2c1)c1ccccc1` [Example 73, N-(2-Oxo-2,3-dihydro-1H-benzo[d]imidazol-5-yl)benzamide], the Kd was determined as 11 nM.

`COc1ccc2c(c1)nc(C(C)C)n2-c1ccc2[nH]c(=O)[nH]c2c1` [Example 124, 2-Isopropyl-5-methoxy-1′,3′-dihydro-2′H-[1,5′-bibenzo[d]imidazol]-2′-one]: the Kd was 13 nM.

Consider `Nc1ccccc1Nc1ccc2[nH]c(=O)[nH]c2c1` [Example 6, 5-((2-Aminophenyl)amino)-1H-benzo[d]imidazol-2(3H)-one], for which the Kd worked out at 54 nM. With `O=C(Nc1ccc2[nH]c(=O)[nH]c2c1)[C@@H]1CCCc2ccccc21` [Example 72, (R)—N-(2-Oxo-2,3-dihydro-1H-benzo[d]imidazol-5-yl)-1,2,3,4-tetrahydronaphthalene-1-carboxamide], the Kd turned out to be 14 nM.

Take `O=C(c1cnc2[nH]c(=O)[nH]c2c1)N1CCc2ccccc21` [Example 55, 6-(Indoline-1-carbonyl)-1,3-dihydro-2H-imidazo[4,5-b]pyridin-2-one]: the Kd was under 1 nM. As for `O=c1[nH]c2ccc(-n3c(C(O)c4ccccc4)nc4ccccc43)cc2[nH]1` (stereo not drawn) [Example 85, 5-[2-[Hydroxy(phenyl)methyl]benzimidazol-1-yl]-1,3-dihydrobenzimidazol-2-one], the figure is 3 nM. Then `CNC(=O)c1nc2ccccc2n1-c1ccc2[nH]c(=O)[nH]c2c1` [Example 102, N-Methyl-1-(2-oxo-1,3-dihydrobenzimidazol-5-yl)benzimidazole-2-carboxamide], with 130 nM; and `O=c1[nH]c2ccc(CCCc3ccccc3)nc2[nH]1` [Example 26, 5-(3-Phenyl-propyl)-1,3-dihydro-imidazo[4,5-b]pyridin-2-one], with 41 nM; and `O=c1[nH]c2ccc(NC3CCN(Cc4ccccc4)CC3)cc2[nH]1` [Example 152, 5-((1-Benzylpiperidin-4-yl)amino)-1,3-dihydro-2H-benzo[d]imidazol-2-one], with 21 nM. In the case of `O=C1c2ccc(Br)cc2CN1c1ccc2[nH]c(=O)[nH]c2c1` [Example 110, 5-(5-Bromo-1-oxo-isoindolin-2-yl)-1,3-dihydrobenzimidazol-2-one], the Kd was found to be 29 nM. Then `O=c1[nH]c2ccc(N3CCN(c4ccccn4)CC3)nc2[nH]1` [Example 40, 5-[4-(2-Pyridyl)piperazin-1-yl]-1,3-dihydroimidazo[4,5-b]pyridin-2-one], with 7 nM; and `Nc1ccc2c(c1)CCN2Cc1ccc2[nH]c(=O)[nH]c2c1` [Example 149, 5-((5-Aminoindolin-1-yl)methyl)-1,3-dihydro-2H-benzo[d]imidazol-2-one], with 17 nM; and `CCOC(=O)c1ccc(NC(=O)Nc2ccc3[nH]c(=O)[nH]c3c2)cc1` [Example 126, Ethyl 4-(3-(2-oxo-2,3-dihydro-1H-benzo[d]imidazol-5-yl)ureido)benzoate], with 9 nM. As for `COc1cnccc1C(=O)Nc1ccc2[nH]c(=O)[nH]c2c1` [Example 132, 3-Methoxy-N-(2-oxo-2,3-dihydro-1H-benzo[d]imidazol-5-yl)isonicotinamide], the figure is under 1 nM. As for `O=C(NC1CCN(Cc2ccccc2)CC1)c1ccc2[nH]c(=O)[nH]c2c1` [Example 139, N-(1-Benzylpiperidin-4-yl)-2-oxo-2,3-dihydro-1H-benzo[d]imidazole-5-carboxamide], the figure is 4 nM; as for `Nc1ccc(CC(=O)Nc2ccc3[nH]c(=O)[nH]c3c2)cc1` [Example 70, 2-(4-Aminophenyl)-N-(2-oxo-2,3-dihydro-1H-benzo[d]imidazol-5-yl)acetamide], 1 nM.

`CNC(=O)c1ccc2c(c1)nc(-c1cc[nH]c1)n2-c1ccc2[nH]c(=O)[nH]c2c1` [Example 66, N-Methyl-2′-oxo-2-(1H-pyrrol-3-yl)-2′,3′-dihydro-1′H-[1,5′-bibenzo[d]imidazole]-5-carboxamide]: the Kd came to 51 nM. Take `O=c1[nH]c2ccc(N3C[C@H]4CC[C@@H](C3)N4)cc2[nH]1` [Example 59, 5-[rac-(1S,5R)-3,8-diazabicyclo[3.2.1]octan-3-yl]-1,3-dihydrobenzimidazol-2-one]: the Kd worked out at 6 nM.

With `NS(=O)(=O)c1ccc(C(=O)Nc2ccc3[nH]c(=O)[nH]c3c2)cc1` [Example 100, N-(2-Oxo-2,3-dihydro-1H-benzo[d]imidazol-5-yl)-4-sulfamoylbenzamide], the Kd was found to be 29 nM.

As for `CNC(=O)c1ccc2c(c1)nc(-c1ccccc1)n2-c1ccc2[nH]c(=O)[nH]c2c1` [Example 10, N-Methyl-2′-oxo-2-phenyl-2′,3′-dihydro-1′H-[1,5′-bibenzo[d]imidazole]-5-carboxamide], the Kd was 88 nM. Then `CNC(=O)c1ccc2c(c1)nc(-c1cn(C)cn1)n2-c1ccc2[nH]c(=O)[nH]c2c1` [Example 65, N-Methyl-2-(1-methyl-1H-imidazol-4-yl)-2′-oxo-2′,3′-dihydro-1′H-[1,5′-bibenzo[d]imidazole]-5-carboxamide], with 9 nM. With `COC(=O)c1ccccc1C(=O)Nc1ccc2[nH]c(=O)[nH]c2c1` [Example 151, Methyl 2-((2-oxo-2,3-dihydro-1H-benzo[d]imidazol-5-yl)carbamoyl)benzoate], the Kd was 52 nM.
